Test results from PubChem BioAssay (NCI).
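48-hour exposure; five concentrations; linearly interpolated endpoints. GI50 marks 50% less growth. TGI marks complete inhibition of growth.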

Key:
Experiment in all cases: NCI-60 cell line screen, 48 h
[1] = test system: UACC-62 melanoma
[2] = test system: SK-MEL-28 melanoma
[3] = test system: RPMI-8226 leukemia
[4] = test system: K-562 leukemia
[5] = test system: T-47D breast
[6] = test system: CCRF-CEM leukemia
[7] = test system: COLO 205 colon
[8] = test system: RXF 393 renal
[9] = test system: U251 CNS
[10] = test system: MOLT-4 leukemia

Row | SMILES | TGI [1] [µM] | TGI [2] [µM] | TGI [3] [µM] | TGI [4] [µM] | TGI [5] [µM] | TGI [6] [µM] | TGI [7] [µM] | TGI [8] [µM] | TGI [9] [µM] | GI50 [1] [µM] | GI50 [2] [µM] | GI50 [3] [µM] | GI50 [4] [µM] | GI50 [5] [µM] | GI50 [6] [µM] | GI50 [10] [µM] | TGI [10] [µM] | GI50 [7] [µM] | GI50 [8] [µM] | GI50 [9] [µM]
1 | COc1cc(OC)c(/C=C/c2cnc3ccccc3n2)c(OC)c1 | > 10 | > 10 | > 10 | > 10 | > 10 | > 10 | > 10 | > 10 | > 10 | – | – | – | – | – | – | – | – | – | – | –
2 | COc1cc2c(cc1Nc1nc(Nc3ccsc3C(N)=O)c3cc[nH]c3n1)N(C(=O)CN(C)C)CCC2(C)C | 5.44 | 6.41 | 5.21 | 6.47 | 7.11 | 3.78 | 0.887 | 5.09 | 6.25 | 1.77 | 3.06 | 1.09 | 1.75 | 3.08 | 0.685 | 1.9 | 8.91 | < 0.0025 | 1.67 | 3.09
3 | Cc1cccc2c(=O)c3c(sc12)c(NCCNCCO)nc1ccccc13 | 3.07 | 3.31 | 3.88 | – | 3.13 | 3.73 | 3.35 | 2.77 | 3.09 | 1.63 | 1.79 | 1.81 | – | 1.33 | 1.85 | 1.53 | 3.21 | 1.56 | 1.43 | 1.56
4 | O=C(NCc1ccc(Cn2c(=O)sn(-c3ccccc3)c2=O)cc1)OCc1ccc2c(Br)cc(Br)c(O)c2n1 | 2.24 | 2.4 | 1.72 | > 100 | 5.66 | > 100 | 1.79 | 1.83 | 3 | 1.03 | 1.17 | 0.312 | 0.322 | 1.71 | 0.351 | 0.503 | > 22.3 | 0.399 | 0.546 | 1.52
5 | C=C1CCC2C(C)(C)CCC[C@]2(C)[C@H]1CO (stereo partly specified) | > 100 | > 100 | – | > 100 | > 100 | – | > 100 | > 100 | > 100 | > 100 | > 100 | – | 73.8 | 41.7 | – | 73.2 | > 100 | 42.1 | > 100 | 49
6 | CCCCS(=O)(=O)CCC(N)C(=O)O (stereo unspecified) | > 100 | > 100 | – | > 100 | > 100 | > 100 | > 100 | > 100 | > 100 | – | – | – | – | – | – | – | > 100 | – | – | –
7 | COc1cc(O)c(C(=O)/C=C/c2ccc(O)cc2)c(O)c1[C@@H]1C[C@H](CCc2ccc(O)cc2)O[C@H](c2ccc(O)cc2)C1 | 12.9 | 14.1 | 5 | – | 17.5 | 10.6 | 8.44 | 9.07 | 11.5 | 3.38 | 3.83 | 2.18 | – | 3.12 | 3.28 | 1.95 | 5.43 | 2.72 | 3.1 | 3.31
8 | Cc1occc1C(=S)Nc1ccc(Cl)c(C(=O)OC(C)C2CC2)c1 (stereo unspecified) | 71.1 | > 100 | 60.1 | – | > 100 | > 100 | 51.3 | 39.4 | 70.5 | – | – | – | – | – | – | – | 57.5 | – | – | –
9 | C=C1CC/C=C(\C)C(=O)C[C@@H]2[C@@H]1CC2(C)C | 24.2 | 6.34 | > 100 | > 100 | 7.8 | – | 3.87 | 4.33 | 49.5 | – | – | – | – | – | – | – | – | – | – | –
10 | CC(=Nc1ccccc1)C1=C(O)C(Cc2ccccc2)NC1=O (stereo unspecified) | > 100 | > 100 | > 100 | > 100 | > 100 | > 100 | 0.0824 | – | > 37.2 | 0.0404 | 0.0712 | 0.0515 | 0.0203 | > 100 | 0.0431 | 0.0753 | > 100 | 0.0279 | – | 0.0373
11 | Cc1c(COc2cc(OCc3cccc(C#N)c3)c(CN3C[C@H](O)C[C@@H]3C(=O)O)cc2Cl)cccc1-c1ccc2c(c1)OCCO2 | 32.3 | 26.1 | – | > 100 | 47 | – | 39.7 | 29.9 | 47.3 | 17 | 13.3 | – | 3.43 | 19.8 | – | – | – | 20.7 | 16 | 17.3
12 | c1cc(CNCCN2CCNCC2)ccn1 | > 100 | > 100 | > 100 | > 100 | > 100 | – | > 100 | > 100 | > 100 | – | – | – | – | – | – | – | > 100 | – | – | –
13 | CC1OC(OC2C(O[C@H]3CC[C@@]4(C)C(=CC[C@H]5[C@@H]6C[C@@H]7O[C@]8(CC[C@H](C)CN8)[C@@H](C)[C@@H]7[C@@]6(C)CC[C@@H]54)C3)OC(CO)C(O)C2OC2OC(CO)C(O)C(O)C2O)C(O)C(O)C1O (stereo partly specified) | 32.1 | 38.5 | – | – | 39 | 39.3 | 31.8 | 31.5 | > 100 | – | – | – | – | – | – | – | 42.1 | – | – | –
14 | Cn1ccnc1C(=O)/C=C/c1ccccc1 | 21.3 | 5.97 | 8.97 | 6.86 | 7.35 | 7.17 | 18 | – | 13.9 | 7.46 | 2.61 | 2.91 | 2.74 | 2.78 | 2.7 | 3.35 | 15.6 | 5.38 | – | 3.21
15 | COc1ccc(Nc2c3ccccc3nc3ccccc23)cc1 | – | 15.3 | 4.66 | 7.19 | 14.3 | 10.7 | 1.85 | 12.1 | 14.1 | – | 2.17 | 1.26 | 0.583 | 2.37 | 1.17 | 0.59 | 3.39 | 0.52 | 2.04 | 2.55
16 | Nc1nc(-c2ccccc2)nc2c1[n+]([O-])c1ccccc1[n+]2[O-] | > 100 | > 100 | > 100 | > 100 | > 100 | > 100 | > 100 | > 100 | > 100 | – | – | – | – | – | – | – | – | – | – | –
